The source of these data is patent US9926281B2 (priority 2014, dated 2018).

One may read the IC50 as the concentration that inhibits the measured activity by half.

In one test the target is human MMP13 (Homo sapiens (Human), UniProt P45452). The following applies: read-out: hMMP-13 potency IC50.
In another test the target is rnADAMTS-5 (1-564-6H) (Rattus norvegicus, UniProt Q6TY19). The following applies: read-out: Rat ADAMTS-5 potency IC50.
Another test concerns the target human TACE (Homo sapiens (Human), UniProt P78536). The following applies: read-out: TACE potency IC50.

human TACE, sequence (P78536 whole entry, looked up, change not shown): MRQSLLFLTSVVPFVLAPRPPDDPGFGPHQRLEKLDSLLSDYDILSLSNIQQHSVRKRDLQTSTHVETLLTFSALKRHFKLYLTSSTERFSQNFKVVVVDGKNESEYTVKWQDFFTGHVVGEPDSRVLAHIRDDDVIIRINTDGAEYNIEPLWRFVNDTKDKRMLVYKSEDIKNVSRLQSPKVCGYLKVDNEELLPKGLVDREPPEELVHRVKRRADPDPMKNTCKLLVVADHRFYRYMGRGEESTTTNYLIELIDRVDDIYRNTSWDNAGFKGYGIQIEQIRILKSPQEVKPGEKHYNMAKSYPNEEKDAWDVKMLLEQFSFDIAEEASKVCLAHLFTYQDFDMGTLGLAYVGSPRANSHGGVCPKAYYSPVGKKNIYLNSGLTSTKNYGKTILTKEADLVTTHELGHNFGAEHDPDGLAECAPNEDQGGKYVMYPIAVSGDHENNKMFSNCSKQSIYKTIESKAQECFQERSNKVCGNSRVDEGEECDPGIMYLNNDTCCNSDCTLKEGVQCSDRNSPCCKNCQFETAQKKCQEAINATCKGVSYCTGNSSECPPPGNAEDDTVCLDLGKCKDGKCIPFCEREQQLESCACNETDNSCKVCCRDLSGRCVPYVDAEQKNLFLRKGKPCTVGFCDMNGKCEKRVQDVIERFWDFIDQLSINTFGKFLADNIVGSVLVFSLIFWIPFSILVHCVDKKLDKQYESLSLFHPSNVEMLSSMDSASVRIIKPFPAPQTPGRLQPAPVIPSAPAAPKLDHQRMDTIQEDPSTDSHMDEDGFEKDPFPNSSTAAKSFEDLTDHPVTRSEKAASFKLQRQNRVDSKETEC
Protocol for human MMP13: Human MMP13 is preactivated by incubated the enzyme in the same buffer complemented with 1 mM freshly prepared p-Aminophenylmercuric acetate (AMPA) for 1 hour at 37° C.

For `CS(=O)(=O)c1ccc(C2(CCC(=O)N3CCN(c4cccc(Cl)c4)CC3)NC(=O)NC2=O)cc1` (stereo not drawn) [compound 124, 5-[3-[4-(3-chlorophenyl)piperazin-1-yl]-3-oxo-propyl]-5-(4-methylsulfonylphenyl)imidazolidine-2,4-dione], the IC50 on human MMP13 stood at 1280 nM; at rnADAMTS-5 (1-564-6H), 37 nM; at human TACE, 880 nM.

For the molecule `C[C@H]1CN(C(=O)CCC2(C)NC(=O)NC2=O)CCN1c1cccc(F)c1` (stereo partly drawn) [compound 157, 5-[3-[(3S)-4-(3-fluorophenyl)-3-methyl-piperazin-1-yl]-3-oxo-propyl]-5-methyl-imidazolidine-2,4-dione], the values for the IC50 on human MMP13, at rnADAMTS-5 (1-564-6H) and on human TACE were more than 20000 nM, 284 nM and more than 20000 nM, respectively.

For the molecule `Cc1ccc(Cl)cc1N1CCN(C(=O)CCC2(c3ccc(Cl)cc3)NC(=O)NC2=O)CC1` (stereo not drawn) [compound 75, 5-[3-[4-(5-chloro-2-methyl-phenyl)piperazin-1-yl]-3-oxo-propyl]-5-(4-chlorophenyl)imidazolidine-2,4-dione], the IC50 at human MMP13 is more than 20000 nM; at rnADAMTS-5 (1-564-6H) it was 141 nM; at human TACE, 550 nM.

Turning to `C[C@H]1CN(C(=O)CCC2(C3CC3)NC(=O)NC2=O)CCN1c1cccc(Cl)c1` (stereo partly drawn) [compound 152, 5-[3-[(3S)-4-(3-chlorophenyl)-3-methyl-piperazin-1-yl]-3-oxo-propyl]-5-cyclopropyl-imidazolidine-2,4-dione], the half-maximal inhibitory concentration (IC50) on human MMP13 is more than 20000 nM; at rnADAMTS-5 (1-564-6H) it was 62 nM; at human TACE it was more than 20000 nM.

Consider `Cc1c(F)cccc1N1CCN(C(=O)CCC2(C3CC3)NC(=O)NC2=O)CC1` (stereo not drawn) [compound 99, 5-cyclopropyl-5-[3-[4-(3-fluoro-2-methyl-phenyl)piperazin-1-yl]-3-oxo-propyl]imidazolidine-2,4-dione], for which the results for the half-maximal inhibitory concentration (IC50) at human MMP13, at rnADAMTS-5 (1-564-6H) and on human TACE were more than 20000 nM, 116 nM and more than 14700 nM, respectively.

As for `CC(C)C1(CCC(=O)N2CCN(c3cccc(Cl)c3)CC2)NC(=O)NC1=O` (stereo not drawn) [compound 53, 5-[3-[4-(3-chlorophenyl)piperazin-1-yl]-3-oxo-propyl]-5-isopropyl-imidazolidine-2,4-dione], the concentration for half-maximal inhibition (IC50) is more than 20000 nM on human MMP13, 179 nM on rnADAMTS-5 (1-564-6H) and more than 4000 nM at human TACE.

`O=C1NC(=O)C(CCC(=O)N2CCN(c3cccc(Cl)c3)CC2)(C2CC2)N1` (stereo not drawn) [compound 34, 5-[3-[4-(3-chlorophenyl)piperazin-1-yl]-3-oxo-propyl]-5-cyclopropyl-imidazolidine-2,4-dione]: the results for the IC50 on human MMP13, on rnADAMTS-5 (1-564-6H) and at human TACE were 3210 nM, 41 nM and more than 4000 nM, respectively.

`O=C1Cc2cc(C3(CCC(=O)N4CCN(c5cccc(Cl)c5)CC4)NC(=O)NC3=O)ccc2N1` (stereo not drawn) [compound 153, 5-[3-[4-(3-chlorophenyl)piperazin-1-yl]-3-oxo-propyl]-5-(2-oxoindolin-5-yl)imidazolidine-2,4-dione]: the IC50 was more than 4000 nM at human MMP13, 114 nM on rnADAMTS-5 (1-564-6H) and 2270 nM at human TACE.

In the case of `COc1ccccc1C1(CCC(=O)N2CCN(c3cccc(Cl)c3)CC2)NC(=O)NC1=O` (stereo not drawn) [compound 146, 5-[3-[4-(3-chlorophenyl)piperazin-1-yl]-3-oxo-propyl]-5-(2-methoxyphenyl)imidazolidine-2,4-dione], the IC50 at human MMP13 worked out at 3880 nM; at rnADAMTS-5 (1-564-6H) it was 133 nM; on human TACE, 1580 nM.

As for `Cc1c(Cl)cccc1N1CCN(C(=O)CCC2(c3cccnc3)NC(=O)NC2=O)CC1` (stereo not drawn) [compound 102, 5-[3-[4-(3-chloro-2-methyl-phenyl)piperazin-1-yl]-3-oxo-propyl]-5-(3-pyridyl)imidazolidine-2,4-dione], the half-inhibitory concentration (IC50) at human MMP13 is more than 20000 nM; on rnADAMTS-5 (1-564-6H), 94 nM; at human TACE, 3400 nM.

As to `C[C@H]1CN(C(=O)CCC2(C3CC3)NC(=O)NC2=O)CCN1c1ccccc1` (stereo partly drawn) [compound 135, 5-cyclopropyl-5-[3-[(3S)-3-methyl-4-phenyl-piperazin-1-yl]-3-oxo-propyl]imidazolidine-2,4-dione], the half-inhibitory concentration (IC50) was more than 20000 nM at human MMP13, 125 nM at rnADAMTS-5 (1-564-6H) and more than 20000 nM on human TACE.

For `COCCN(C)CC1(CCC(=O)N2CCN(c3cccc(Cl)c3)CC2)NC(=O)NC1=O` (stereo not drawn) [compound 154, 5-[3-[4-(3-chlorophenyl)piperazin-1-yl]-3-oxo-propyl]-5-[[2-methoxyethyl(methyl)amino]methyl]imidazolidine-2,4-dione], the results for the IC50 on human MMP13, on rnADAMTS-5 (1-564-6H) and at human TACE were more than 4000 nM, 507 nM and more than 20000 nM, respectively.

Take `C[C@]1(CCC(=O)N2CCN(c3cc(Cl)cc(Cl)c3)CC2)NC(=O)NC1=O` [compound 159, (5R)-5-[3-[4-(3,5-dichlorophenyl)piperazin-1-yl]-3-oxo-propyl]-5-methyl-imidazolidine-2,4-dione]: the IC50 at human MMP13 is more than 20000 nM; at rnADAMTS-5 (1-564-6H), 127 nM; at human TACE, 1870 nM.

`C[C@H]1CN(C(=O)CCC2(C)NC(=O)NC2=O)CCN1c1cc(F)cc(F)c1` (stereo partly drawn) [compound 156, 5-[3-[(3S)-4-(3,5-difluorophenyl)-3-methyl-piperazin-1-yl]-3-oxo-propyl]-5-methyl-imidazolidine-2,4-dione]: the IC50 on human MMP13 was more than 20000 nM; on rnADAMTS-5 (1-564-6H), 128 nM; at human TACE, more than 20000 nM.

In the case of `C[C@H]1CN(C(=O)CCC2(C3CC3)NC(=O)NC2=O)CCN1c1ccc(Cl)cc1` (stereo partly drawn) [compound 147, 5-[3-[(3S)-4-(4-chlorophenyl)-3-methyl-piperazin-1-yl]-3-oxo-propyl]-5-cyclopropyl-imidazolidine-2,4-dione], the IC50 was more than 4000 nM on human MMP13, 99 nM on rnADAMTS-5 (1-564-6H) and more than 4000 nM on human TACE.

With `C[C@H]1CN(C(=O)CCC2(C3CC3)NC(=O)NC2=O)CCN1c1cc(F)cc(F)c1` (stereo partly drawn) [compound 160, 5-cyclopropyl-5-[3-[(3S)-4-(3,5-difluorophenyl)-3-methyl-piperazin-1-yl]-3-oxo-propyl]imidazolidine-2,4-dione], the concentration for half-maximal inhibition (IC50) on human MMP13 was more than 20000 nM; on rnADAMTS-5 (1-564-6H) it was 36 nM; on human TACE it was more than 20000 nM.

On to `Cc1ccc(F)cc1N1CCN(C(=O)CCC2(C)NC(=O)NC2=O)C[C@@H]1C` (stereo partly drawn) [compound 145, 5-[3-[(3S)-4-(5-fluoro-2-methyl-phenyl)-3-methyl-piperazin-1-yl]-3-oxo-propyl]-5-methyl-imidazolidine-2,4-dione], for which the figures for the IC50 at human MMP13, on rnADAMTS-5 (1-564-6H) and on human TACE were more than 20000 nM, 563 nM and more than 4000 nM, respectively.

As to `C[C@H]1CN(C(=O)CCC2(C3CC3)NC(=O)NC2=O)CCN1c1cccc(F)c1` (stereo partly drawn) [compound 151, 5-cyclopropyl-5-[3-[(3S)-4-(3-fluorophenyl)-3-methyl-piperazin-1-yl]-3-oxo-propyl]imidazolidine-2,4-dione], the half-maximal inhibitory concentration (IC50) at human MMP13 was more than 20000 nM; on rnADAMTS-5 (1-564-6H), 83 nM; at human TACE it was more than 20000 nM.

Regarding `Cc1ccc(F)cc1N1CCN(C(=O)CCC2(C3CC3)NC(=O)NC2=O)CC1` (stereo not drawn) [compound 116, 5-cyclopropyl-5-[3-[4-(5-fluoro-2-methyl-phenyl)piperazin-1-yl]-3-oxo-propyl]imidazolidine-2,4-dione], the half-maximal inhibitory concentration (IC50) on human MMP13 is more than 20000 nM; at rnADAMTS-5 (1-564-6H), 29 nM; at human TACE it was more than 4640 nM.
